The target in experiment [1] is T1, human cathepsin L (Homo sapiens, UniProt P07711).
T1 construct: His-tag (only implied by the Ni-NTA capture and the pET-28a(+) vector); host or cells: E. coli C43(DE3)
As to conditions: read-out: Ki (hCatL), cited from earlier work.

Experiment [2] concerns the target T2, SARS-CoV-2 3CL protease (3CL-PR) (Severe acute respiratory syndrome coronavirus 2, UniProt P0DTC1). The note with it: cited from earlier work; for Ki: read-out: Ki (3CL-PR).
The target in experiment [3] is T2, SARS-CoV-2 3CL protease (3CL-PR). The experiment in a line: biochemical. It is filed as biochemical.
The next experiment has as its target T3, human cathepsin B (Homo sapiens, UniProt P07858).
T3 construct: purchased Millipore Sigma or R&D Systems
The experiment in a line: Kinetic assay of human cathepsin B inhibition (Z-LR-AMC fluorescence). It is filed as biochemical.

The test system of experiment [4] is SARS-CoV-2 (USA_WA1/2020 isolate). The experiment in a line: Vero E6-based microneutralization assay of SARS-CoV-2 infection (CPE). The format is cell-based. As to conditions: for fold less potent in inhibiting SARS-CoV-2 infection than Nirmatrelvir and PF-835231: ratio of EC50.
Experiment [5] concerns the target T1, human cathepsin L. The experiment in a line: Kinetic assay of human cathepsin L inhibition (Z-LR-AMC / Z-FR-AMC fluorescence). The format is biochemical. As to conditions: for mode of inhibition of hCatL: inhibitor vs variable substrate.
The mark [6] stands for this setting: 25 °C, pH 7.5, time-dependent inhibitors at t ∼ 30 min (steady-state), read-out: Ki * (nM) 3CL-PR.
Where [7] appears, read: 25 °C, pH 5.5, time-dependent inhibitors at t ∼ 30 min (steady-state), read-out: Ki * (nM) hCat B.
Setting [8] is: Severe acute respiratory syndrome coronavirus 2, Vero C1008, 72 h, Vero E6 cells, 2 μM CP-100356, CPE after 3 days, read-out: Anti-SARS-CoV-2 Activity EC50.
The mark [9] stands for this setting: 25 °C, pH 5.5, time-dependent inhibitors at t ∼ 30 min (steady-state), read-out: Ki * (nM) hCat L.
Where [10] appears, read: initial rates, t = 0–3 min, read-out: Ki (hCatB) from initial rates vi/v0.

Values joined by “and” are separate entries in the source; they are usually repeats but may differ in a detail not shown here. Identical values can stand only once. Like-named read-outs stand apart in the source and are kept apart here.

T1 sequence (P07711 114-333): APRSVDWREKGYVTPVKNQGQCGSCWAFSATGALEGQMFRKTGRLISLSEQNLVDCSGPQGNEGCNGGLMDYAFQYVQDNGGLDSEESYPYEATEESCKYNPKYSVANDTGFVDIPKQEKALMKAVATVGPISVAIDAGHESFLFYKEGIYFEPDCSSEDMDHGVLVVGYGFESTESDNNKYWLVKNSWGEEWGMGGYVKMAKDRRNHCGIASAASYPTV

Take `CN1CCN(C(=O)NC(Cc2ccccc2)C(=O)NC2Cc3cccnc3OC2O)CC1` (centres unmarked) [Compound 2]: the Ki at human cathepsin L [1] (compounds 1 and 2) is 1.03 nM and 1 nM; in experiment [2] (compound 2), 250 nM.
`O=CC(Cc1ccc[nH]c1=O)NC(=O)C(CC1CCCCC1)NC(=O)c1cc2ccccc2[nH]1` (centres unmarked) [Compound 5]: the Ki in experiment [3] (setting [6]) worked out at 27 ± 5 nM; on human cathepsin B (setting [7]), 101 ± 3 nM; at human cathepsin L [5] (setting [9]), 9 ± 2 nM. For the same molecule, the “fold improvement in inhibition of 3CL-PR, 5 over 4” value in experiment [3] (CHA for Leu at P2) is recorded as 1.5 fold. Also, in experiment [4] (setting [8]), the EC50 (as a rule, the midpoint of the concentration-response curve) stood at 1.9 µM. The “fold less potent in inhibiting SARS-CoV-2 infection than Nirmatrelvir and PF-835231” value in experiment [4] (Vero E6 cells) is listed as “eight-fold less active”. Besides, the “fold improvement in inhibition of hCatL, 5 over 4” value on human cathepsin L [5] (CHA for Leu at P2) is given as 2 fold. Besides, the “mode of inhibition of hCatL” value on human cathepsin L [5] is “competitive inhibitor”.
For `CN1CCN(C(=O)NC(Cc2ccccc2)C(=O)NC2Cc3ccccc3OC2O)CC1` (centres unmarked) [Compound 1], in experiment [2] (compound 1), the “inhibition of 3CL-PR” value is listed as “did not inhibit” and the Ki is above 10000 nM.
`COc1cccc2[nH]c(C(=O)N[C@@H](CC(C)C)C(=O)N[C@H](C=O)Cc3cocn3)cc12` [Compound 8]: the values for the Ki (in experiment [3] (setting [6]); at human cathepsin B (setting [7]); at human cathepsin L [5] (setting [9])) were 124 ± 5 nM, 189 ± 9 nM and 1.1 ± 0.1 nM, respectively. Also, the half-maximal effective concentration (EC50) in experiment [4] (Severe acute respiratory syndrome coronavirus 2, Vero C1008, 72 h, read-out: Anti-SARS-CoV-2 Activity EC50 (μM), Vero E6 cells, 2 μM CP-100356, CPE after 3 days) was found to be 0.62 µM; in experiment [4] (Vero E6 cells, 2 μM CP-100356, CPE after 3 days, read-out: Anti-SARS-CoV-2 Activity EC50), 0.625 µM.
With `CC(C)C[C@H](NC(=O)c1cc2ccccc2[nH]1)C(=O)N[C@H](C=O)C[C@@H]1CCNC1=O` [AC1115, reference compound], the results for the Ki (at human cathepsin L [1] (AC1115); in experiment [2] (AC1115)) were around 0.06 nM and 2.4 nM, respectively.
With `CN1CCN(C(=O)N[C@@H](Cc2ccccc2)C(=O)N[C@H](/C=C/S(=O)(=O)c2ccccc2)CCc2ccccc2)CC1` [Compound K11777, reference compound], in experiment [2] (K11777), the Ki is above 10000 nM.
Regarding `CC(C)(C)[C@H](NC(=O)C(F)(F)F)C(=O)N1C[C@H]2[C@@H]([C@H]1C(=O)N[C@H](C#N)C[C@@H]1CCNC1=O)C2(C)C` [Nirmatrelvir, reference compound], in experiment [4] (setting [8]), the EC50 worked out at 0.23 µM.
With `COc1cccc2[nH]c(C(=O)NC(CC(C)C)C(=O)NC(C=O)Cc3ccc[nH]c3=O)cc12` (centres unmarked) [Compound 6], in experiment [3], the “fold more potent vs 3CL-PR, 6 compared to 8” value is on record as 50 fold. The “fold improvement in inhibition of 3CL-PR, 6 over 4” value in experiment [3] (4-methoxy group on indole) came to 15 fold. Further, the Ki in experiment [3] (setting [6]) was 2.6 ± 0.4 nM; in experiment [3] (initial rates, t = 0–180 s, read-out: Ki (3CL-Pro) from initial rates vi/v0) it was 20 ± 2 nM; at human cathepsin B (setting [7]), 100 ± 2 nM; at human cathepsin B (setting [10]), 65 ± 3 nM; at human cathepsin L [5] (setting [9]), 0.6 nM and 0.55 nM; on human cathepsin L [5] (initial rates, t = 0–180 s, read-out: Ki (hCatL) from initial rates vi/v0), 2.3 ± 0.4 nM. For the same molecule, the EC50 in experiment [4] (setting [8]) turned out to be 1.25 µM. In addition, in experiment [4] (Vero E6 cells), the “fold less potent in inhibiting SARS-CoV-2 infection than Nirmatrelvir and PF-835231” value is “five-fold less potent”. Further, the “fold less anti-CoV-2 activity in comparison to AC1115” value in experiment [4] (not evaluated under the same conditions) is recorded as 4 fold. Also, the “fold improvement in inhibition of hCatL, 6 over 4” value at human cathepsin L [5] (4-methoxy group on indole) came out at 30 fold.
Take `CC(C)CC(NC(=O)c1cc2ccccc2[nH]1)C(=O)NC(C=O)Cc1ccc[nH]c1=O` (centres unmarked) [Compound 4]: the Ki in experiment [3] (setting [6]) worked out at 38 ± 4 nM; at human cathepsin B (setting [7]) it was 210 ± 20 nM; at human cathepsin L [5] (setting [9]), 17 ± 1 nM. In addition, in experiment [4] (setting [8]), the EC50 amounted to 15 µM.
`CC(C)C[C@H](NC(=O)OCc1ccccc1)C(=O)N[C@@H](CC1CCCCC1)C(=O)N[C@H](C=O)Cc1ccc[nH]c1=O` [Compound 3]: the Ki worked out at 9 ± 2 nM in experiment [3] (setting [6]); 16 nM in experiment [3] (competitive pattern at < 10 min incubation (Figure S1B), read-out: Ki (3CL-PR) before longer incubation); 280 ± 5 nM on human cathepsin B (setting [7]); 290 nM at human cathepsin B (setting [10]); 8 ± 1 nM at human cathepsin L [5] (setting [9]). Moreover, the “mode of inhibition of 3CL-PR” value in experiment [3] (inhibitor vs variable substrate) was “competitive inhibitor”. Besides, in experiment [3] (ratio of Ki), the “fold less potent vs 3CL-PR than Nirmatrelvir” value turned out to be 3 fold. Besides, in experiment [4] (setting [8]), the 50% effective concentration (EC50) was 0.47 µM. Further, the “fold less potent in inhibiting SARS-CoV-2 infection than Nirmatrelvir and PF-835231” value in experiment [4] (Vero E6 cells) is recorded as 2 fold. At human cathepsin L [5], the “mode of inhibition of hCatL” value is recorded as “competitive inhibitor”.
For the molecule `COc1cccc2[nH]c(C(=O)N[C@@H](CC(C)C)C(=O)N[C@@H](C[C@@H]3CCNC3=O)C(=O)CO)cc12` [PF-835231, reference compound], the Ki in experiment [3] (setting [6]) is 0.23 ± 0.09 nM. In addition, the “fold more potent than Nirmatrelvir vs 3CL-PR” value in experiment [3] (ratio of Ki) was “more than 10 fold”. In addition, in experiment [4] (setting [8]), the 50% effective concentration (EC50) stood at 0.23 µM.

Values taken from publication PMC11744766, “Dual Inhibitors of SARS-CoV-2 3CL Protease and Human Cathepsin L Containing Glutamine Isosteres Are Anti-CoV-2 Agents” (Journal of the American Chemical Society, 2025).
